Laboratory results from patent US20260272897A1 (Bayer Aktiengesellschaft, priority 2024, published 2026).
Read-outs that look alike come from different tables or passages of the source.

Legend:
[1] = tested on: patients with heart failure and a left ventricular ejection fraction ≥40%; type: in vivo
[2] = in vivo; cited from earlier work

CCOc1ncc(C)c2c1[C@H](c1ccc(C#N)cc1OC)C(C(N)=O)=C(C)N2 [finerenone, (4S)-4-(4-cyano-2-methoxyphenyl)-5-ethoxy-2,8-dimethyl-1,4-dihydro-1,6-naphthyridine-3-carboxamide]
Total worsening HF events: Event rate per 100 PY ([1]; bilirubin Tertile 2 0.5-0.6 mg/dL): 9.7 per 100 PY
Total worsening HF events: Event rate per 100 PY ([1]; bilirubin Tertile 3 ≥0.7 mg/dL): 12.6 per 100 PY
primary events (total worsening heart failure events and cardiovascular death), number of events ([1]; finerenone group, median 32 months): 1,083
active metabolites [2]: no active metabolites
